Molecules are shown by their SMILES. Activity calls are given as the source filed them. The rule behind the calls is not given here.

The term Ki denotes the dissociation constant of the complex between target and ligand, obtained from inhibition or displacement. A high value points to lower affinity.

The target of the first experiment is T1, Adenosine receptor A1 (Rattus norvegicus, UniProt P25099).
T1 sequence (P25099 whole entry): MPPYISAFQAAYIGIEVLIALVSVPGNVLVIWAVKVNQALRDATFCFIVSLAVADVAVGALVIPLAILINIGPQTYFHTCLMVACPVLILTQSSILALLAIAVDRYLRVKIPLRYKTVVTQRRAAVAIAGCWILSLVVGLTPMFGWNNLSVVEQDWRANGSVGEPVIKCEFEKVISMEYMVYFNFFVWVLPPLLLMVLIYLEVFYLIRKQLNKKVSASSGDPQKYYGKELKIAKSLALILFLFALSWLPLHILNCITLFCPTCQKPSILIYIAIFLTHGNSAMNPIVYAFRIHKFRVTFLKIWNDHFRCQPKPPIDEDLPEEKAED
Assay: not given
Take `CCn1c(=O)c2c(nc(CCCc3ccccc3)n2CC)n(CC)c1=O`: the Ki came out at 139 nM.
Same read-out and setting: next, `CCn1c(=O)c2c(nc(CCc3ccccc3)n2CC)n(CC)c1=O`: 543 nM; `CCn1c(=O)c2c(nc(COc3ccccc3)n2CC)n(CC)c1=O`: 356 nM.

In another experiment the target is T1, Adenosine receptor A1.
Assay: not given
This is another data set of the same source.
Turning to `CCn1c(=O)c2c(nc(CCCc3ccccc3)n2CC)n(CC)c1=O`, the Ki came to 209 nM.
`CCn1c(=O)c2c(nc(CCc3ccccc3)n2CC)n(CC)c1=O` displayed a Ki of 763 nM.
The same measure, in the same setting: the value for `CCn1c(=O)c2c(nc(COc3ccccc3)n2CC)n(CC)c1=O` was 397 nM.

In a further experiment the target is T2, Adenosine receptor A2a (Rattus norvegicus, UniProt P30543). Kind of experiment: Binding affinity to Adenosine A2A receptor in rat brain tissue by radioligand displacement assay. Format: tissue-based.
T2 sequence (P30543 whole entry): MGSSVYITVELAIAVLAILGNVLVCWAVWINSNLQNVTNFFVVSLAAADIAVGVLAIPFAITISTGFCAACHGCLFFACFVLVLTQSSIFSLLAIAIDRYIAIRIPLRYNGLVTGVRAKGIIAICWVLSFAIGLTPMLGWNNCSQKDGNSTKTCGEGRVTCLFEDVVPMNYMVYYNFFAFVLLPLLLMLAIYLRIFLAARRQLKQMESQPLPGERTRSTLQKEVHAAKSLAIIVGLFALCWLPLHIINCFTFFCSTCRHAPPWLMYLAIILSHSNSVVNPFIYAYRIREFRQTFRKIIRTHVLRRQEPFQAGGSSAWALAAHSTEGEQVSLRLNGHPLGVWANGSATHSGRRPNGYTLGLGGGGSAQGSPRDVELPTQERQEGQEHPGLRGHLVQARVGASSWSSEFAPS
On to `Cn1c(=O)c2c(nc(-c3ccccc3)n2C)n(C)c1=O`, for which the Ki amounted to 27000 nM.

For the next experiment, the species on record is Rattus norvegicus. Kind of experiment: Selectivity ratio of Ki for Adenosine A2A receptor in Sprague-Dawley rat striatal membranes to Ki for Adenosine A1 receptor in Sprague-Dawley rat whole brain membranes.
As for `Cn1c(=O)c2c(nc(CCc3ccccc3)n2C)n(C)c1=O`, the Ratio Ki came to 0.86.
With `CCn1c(=O)c2c(nc(CCCc3ccccc3)n2CC)n(CC)c1=O`, the Ratio Ki came out at 17.
Still for that read-out and setting: next, `CCn1c(=O)c2c(nc(CCc3ccccc3)n2CC)n(CC)c1=O`: 8.
Take `CCn1c(=O)c2c(nc(COc3ccccc3)n2CC)n(CC)c1=O`: the Ratio Ki stood at 6.
Still for that read-out and setting: next, `CCn1c(=O)c2c(nc(COc3ccccc3)n2C)n(CC)c1=O`: 2.
Turning to `Cn1c(=O)c2c(nc(CCCc3ccccc3)n2C)n(C)c1=O`, the Ratio Ki amounted to 4.
As for `CCn1c(CCc2ccccc2)nc2c1c(=O)n(C)c(=O)n2C`, the Ratio Ki stood at 3.
Consider `CCn1c(=O)c2c(nc(CCCc3ccccc3)n2C)n(CC)c1=O`, for which the Ratio Ki turned out to be 3.
For `CCn1c(COc2ccccc2)nc2c1c(=O)n(C)c(=O)n2C`, the Ratio Ki came out at 2.
As for `CCn1c(CCCc2ccccc2)nc2c1c(=O)n(C)c(=O)n2C`, the Ratio Ki is 19.
`Cn1c(=O)c2c(nc(COc3ccccc3)n2C)n(C)c1=O`: the Ratio Ki is 0.77.
Regarding `CCn1c(=O)c2c(nc(CCc3ccccc3)n2C)n(CC)c1=O`, the Ratio Ki was determined as 3.

A further experiment has as its target T2, Adenosine receptor A2a. Kind of experiment: Displacement of [3H]-NECA from Adenosine A2A receptor in Sprague-Dawley rat striatal membranes. Also noted: species or system Striatum, Membrane. (Displacement assays read how much labelled ligand stays bound in the presence of the test substance.)
As for `Cn1c(=O)c2c(nc(CCc3ccccc3)n2C)n(C)c1=O`, affinity was put at a Ki of 4950 nM.
`CCn1c(=O)c2c(nc(CCCc3ccccc3)n2CC)n(CC)c1=O`: affinity was put at a Ki of 2710 nM.
Take `OC[C@H]1O[C@@H](n2cnc3c(NC4CCCC4)ncnc32)[C@H](O)[C@@H]1O` [N6-CYCLOPENTYLADENOSINE]: the Ki worked out at 331 nM.
As to `CCn1c(=O)c2c(nc(CCc3ccccc3)n2CC)n(CC)c1=O`, the Ki turned out to be 4970 nM.
The molecule `CCn1c(=O)c2c(nc(COc3ccccc3)n2CC)n(CC)c1=O` showed a Ki of 2640 nM.
`CCn1c(=O)c2c(nc(COc3ccccc3)n2C)n(CC)c1=O` returned a Ki of 1910 nM.
The same measure, in the same setting: the value for `Cn1c(=O)c2c(nc(CCCc3ccccc3)n2C)n(C)c1=O` was 6800 nM.
Molecule `CCn1c(CCc2ccccc2)nc2c1c(=O)n(C)c(=O)n2C` had a Ki of 3110 nM.
Still for that read-out and setting: next, `CCn1c(=O)c2c(nc(CCCc3ccccc3)n2C)n(CC)c1=O`: 3930 nM; `CCn1c(COc2ccccc2)nc2c1c(=O)n(C)c(=O)n2C`: 2250 nM.
Consider `CCn1c(CCCc2ccccc2)nc2c1c(=O)n(C)c(=O)n2C`, for which affinity was put at a Ki of 4930 nM.
As to `Cn1c(=O)c2c(nc(COc3ccccc3)n2C)n(C)c1=O`, the Ki was found to be 2370 nM.
The same measure, in the same setting: next, `CCn1c(=O)c2c(nc(CCc3ccccc3)n2C)n(CC)c1=O`: 2360 nM.

A further experiment addresses T1, Adenosine receptor A1. The experiment in a line: Displacement of [3H]-DPCPX from Adenosine A1 receptor in Sprague-Dawley rat whole brain membranes. The arrangement: species or system Membrane.
`Cn1c(=O)c2c(nc(CCc3ccccc3)n2C)n(C)c1=O` came in with a Ki of 5740 nM.
For the molecule `CCn1c(=O)c2c(nc(CCCc3ccccc3)n2CC)n(CC)c1=O`, the Ki was determined as 164 nM.
Regarding `CCn1c(=O)c2c(nc(CCc3ccccc3)n2CC)n(CC)c1=O`, the Ki came to 636 nM.
`CCn1c(=O)c2c(nc(COc3ccccc3)n2CC)n(CC)c1=O` had a Ki of 416 nM.
`CCn1c(=O)c2c(nc(COc3ccccc3)n2C)n(CC)c1=O` yielded a Ki of 874 nM.
Take `Cn1c(=O)c2c(nc(CCCc3ccccc3)n2C)n(C)c1=O`: affinity was put at a Ki of 1550 nM.
`CCn1c(CCc2ccccc2)nc2c1c(=O)n(C)c(=O)n2C` had a Ki of 1090 nM.
With `CCn1c(=O)c2c(nc(CCCc3ccccc3)n2C)n(CC)c1=O`, the affinity corresponds to a Ki of 1240 nM.
For `CCn1c(COc2ccccc2)nc2c1c(=O)n(C)c(=O)n2C`, the Ki was 1100 nM.
With `CCn1c(CCCc2ccccc2)nc2c1c(=O)n(C)c(=O)n2C`, the affinity corresponds to a Ki of 259 nM.
`Cn1c(=O)c2c(nc(COc3ccccc3)n2C)n(C)c1=O` registered a Ki of 3090 nM.
Molecule `CCn1c(=O)c2c(nc(CCc3ccccc3)n2C)n(CC)c1=O` showed a Ki of 816 nM.

A further experiment deals with T1, Adenosine receptor A1.
Assay: not given
The source holds these as a separate data set.
`CCn1c(=O)c2c(nc(CCCc3ccccc3)n2CC)n(CC)c1=O` gave a Ki of 164 nM.
On the same count and under the same terms, next, `CCn1c(=O)c2c(nc(CCc3ccccc3)n2CC)n(CC)c1=O`: 636 nM; `CCn1c(=O)c2c(nc(COc3ccccc3)n2CC)n(CC)c1=O`: 416 nM.

The target of a further experiment is T1, Adenosine receptor A1.
Assay: not given
This is another data set of the same source.
Molecule `CCn1c(=O)c2c(nc(CCCc3ccccc3)n2CC)n(CC)c1=O` gave an inhibition constant Ki of 258 nM.
In the case of `CCn1c(=O)c2c(nc(CCc3ccccc3)n2CC)n(CC)c1=O`, the Ki was determined as 681 nM.
Regarding `CCn1c(=O)c2c(nc(COc3ccccc3)n2CC)n(CC)c1=O`, the Ki came to 368 nM.

For a further experiment, the system named is Rattus norvegicus. The experiment in a line: Inhibition of CPA-induced hypolocomotion in Sprague-Dawley rat at 0.03 to 0.1 mg/kg, ip administered 25 mins prior to CPA addition measured for 20 mins starting from 5 mins post habituation. Format: functional, organism-based.
As to `CCCn1c(=O)c2[nH]c(C3CCCC3)nc2n(CCC)c1=O`, the inhibition result was “Active”.

The test system of another experiment is Rattus norvegicus. The experiment in a line: Inhibition of CPA-induced hypolocomotion in Sprague-Dawley rat at 0.06 to […], ip administered 25 mins prior to CPA addition measured for 20 mins starting from 5 mins post habituation.
Consider `CCn1c(=O)c2c(nc(CCCc3ccccc3)n2CC)n(CC)c1=O`, for which the inhibition entry is “Active”.

For the origin of these results see ChEMBL document CHEMBL3616475 (Bioorg Med Chem, 2015).
